The values below come from patent US11667630B2, “Nitrogen-containing 6-membered cyclic compound” (Asahi Kasei Pharma Corporation, priority 2017, dated 2023).

In experiment [1] the target is human EP4 receptor (Homo sapiens, UniProt P35408). As to the kind of experiment: Measurement of EP4 agonist activity (cAMP production). Format: cell-based. Also on record: expressed in transfected cells; host or cells: HEK293. The conditions noted are these: cAMP production in HEK293 cells stably expressing human EP4 receptor; average values where measured two or more times. The method, then:
In order to investigate EP4 receptor agonist activity of the compounds of the present invention, production of cAMP was measured in HEK293 cells that were made to stably express the human EP4 receptor.
By using Refseq Database, prostaglandin E receptor was searched for. As a result, gene information of human EP4 (NM_000958) receptor was obtained. On the basis of this sequence information, the human EP4 receptor gene was cloned by PCR in a conventional manner using human cDNA as the template, and HEK293 cells that were made to stably express the human EP4 receptor were established. When cryopreserved cells of this strain were thawed and used, cells subcultured three times or more within a certain period of time (about 1 to 2 weeks) by using Dulbecco's Modified Eagle's Medium (Dulbecco's Modified Eagle's Medium may be henceforth abbreviated as DMEM) containing 10% FBS, 50 units each of penicillin and streptomycin were used. The subcultured cells were inoculated in wells of a poly-D-lysine-coated 96-well plate at a density of 2×10^4 to 2.5×10^4 cells/well, and cultured for one day. The medium in the wells was removed by suction, then DMEM (80 μL) was added to each well, and incubation was performed at 37° C. for 15 minutes. […] The reaction was allowed at 37° C. for 30 minutes, then the medium was removed by suction, Assay/Lysis Buffer (100 μL) contained in cAMP Screen Kit (produced by Applied Biosystems) was added to terminate the reaction. Then, the reaction mixture was incubated at 37° C. for 30 minutes to prepare a sample for quantification of cAMP, and the amount of cAMP in the sample was quantified according to the method indicated in cAMP Screen Kit. By non-linear regression of the compound concentration and the amount of cAMP, the concentration of the compound required for increasing cAMP to 50% of the maximum increase (EC50 value) was calculated by using the Kaleida Graph.
(Cyclic AMP is a second messenger, typically raised through Gs and lowered through Gi signalling.)

For experiment [2], the system named is rat femur. As to the kind of experiment: Neo-osteogenesis action in rat femur. It counts as in vivo. The conditions noted are these: female SD rats, one week after administration; for Bone mineral content of femur 1/3 center region (mg) Left femur (administered with compound): 100 μg test compound in in situ-solidified gel solution injected between quadriceps and periosteum. The procedure: Eight weeks old female SD rats (Charles River Japan) were fixed in the side lying position under triple anesthesia (medetomidine hydrochloride, midazolam, and butorphanol tartrate). After hair of the left femoral region was shaved with a hair clipper, and disinfection treatment was performed with 70% ethanol, an in situ-solidified gel solution of a test compound, specifically, a test compound dissolved in poly(lactic-co-glycolic acid) (RESOMER RG502H, produced by Evonik Industries)/poly(lactic-co-glycolic acid)-polyethylene glycol block copolymer (5050 DLG mPEG 5000, produced by Lakeshore Biomaterials)/N-methyl-2-pyrroridone (produced by Wako) (weight ratio 47%/3%/50%), was filled in a 1-mL syringe, a 21G injection needle was attached to the syringe, and the needle was transdermally stabbed from the quadriceps to the periosteum near the center of the femoral diaphyseal. Then, 100 μg as the amount of the test compound, or 50 μL as the administration volume of the solution was injected between the quadriceps and the periosteum, and the injection needle was drawn out. To the rats of the control group, the aforementioned in situ-solidified gel solution alone was administered. One week after the administration of the drug solution, the triple anesthesia was given to the animals, and they were fixed in the supine position, and euthanized by bleeding. […], circumferential tissues such as muscles were removed, the bone mineral content of the whole femur was measured by using a bone mineral analyzer DCS-600EX (produced by ALOKA), then it was divided into three portions along the long axis, and the bone mineral content of the center part (diaphysis) was evaluated. The test was performed with the groups each consisting of 6 animals.

Sequence of human EP4 receptor (P35408 whole entry): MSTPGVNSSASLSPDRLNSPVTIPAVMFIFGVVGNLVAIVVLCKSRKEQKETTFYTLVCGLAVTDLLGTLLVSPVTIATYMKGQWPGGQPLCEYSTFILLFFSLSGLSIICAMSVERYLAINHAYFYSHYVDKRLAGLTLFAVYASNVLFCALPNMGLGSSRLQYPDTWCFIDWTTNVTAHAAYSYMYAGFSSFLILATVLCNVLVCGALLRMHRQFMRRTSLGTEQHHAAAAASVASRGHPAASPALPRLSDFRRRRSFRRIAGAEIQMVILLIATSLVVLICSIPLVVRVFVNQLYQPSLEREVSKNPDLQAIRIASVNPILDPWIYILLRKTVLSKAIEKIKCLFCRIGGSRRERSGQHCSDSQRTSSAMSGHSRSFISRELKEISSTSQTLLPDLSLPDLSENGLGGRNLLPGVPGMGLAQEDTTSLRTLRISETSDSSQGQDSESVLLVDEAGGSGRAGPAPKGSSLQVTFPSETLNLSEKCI

Regarding `O=C(O)c1ccc(CCN2C(=O)SCCN2CCC(O)Cc2cccc(C#Cc3cscc3-c3ccccc3)c2)s1` (centres unmarked) [Example 21, 5-(2-(4-(3-Hydroxy-4-(3-((4-phenylthiophen-3-yl)ethynyl)phenyl)butyl)-2-oxo-1,3,4-thiadiazinan-3-yl)ethyl)thiophene-2-carboxylic acid], in experiment [1], the concentration giving a half-maximal response (EC50) was 0.5 nM. In the case of `N#Cc1sccc1C#Cc1cccc(C[C@H](O)CCN2CCSC(=O)N2CCc2ccc(C(=O)O)s2)c1` [Example 24, (S)-5-(2-(4-(4-(3-((2-Cyanothiophen-3-yl)ethynyl)phenyl)-3-hydroxybutyl)-2-oxo-1,3,4-thiadiazinan-3-yl)ethyl)thiophene-2-carboxylic acid], in experiment [2], the “Bone mineral content of femur 1/3 center region (mg) Left femur (administered with compound)” value is 80.7 ± 4.0 mg.

For the molecule `O=C(O)c1ccc(CCN2C(=O)SCCN2CCC(O)Cc2cccc(C#Cc3ccsc3)c2)s1` (centres unmarked) [Example 1, 5-(2-(4-(3-Hydroxy-4-(3-(thiophen-3-ylethynyl)phenyl)butyl)-2-oxo-1,3,4-thiadiazinan-3-yl)ethyl)thiophene-2-carboxylic acid], the EC50 in experiment [1] amounted to 0.045 nM. Take `Cc1cc(C#Cc2cccc(CC(O)CCN3CCSC(=O)N3CCc3ccc(C(=O)O)s3)c2)cs1` (centres unmarked) [Example 6, 5-(2-(4-(3-Hydroxy-4-(3-((5-methylthiophen-3-yl)ethynyl)phenyl)butyl)-2-oxo-1,3,4-thiadiazinan-3-yl)ethyl)thiophene-2-carboxylic acid]: the “Bone mineral content of femur 1/3 center region (mg) Left femur (administered with compound)” value in experiment [2] turned out to be 81.3 ± 3.6 mg. Besides, the “Bone mineral content of femur 1/3 center region (mg) Right femur (no administration of compound)” value in experiment [2] (contralateral femur, 100 μg test compound given at left femur) was 64.7 ± 2.4 mg. Further, in experiment [1], the EC50 worked out at 0.56 nM. In experiment [1], `O=C(O)c1ccc(CCN2C(=O)SCCN2CCC(O)Cc2cccc(/C=C/c3ccsc3)c2)s1` (centres unmarked) [Example 27, (E)-5-(2-(4-(3-Hydroxy-4-(3-(2-(thiophen-3-yl)vinyl)phenyl)butyl)-2-oxo-1,3,4-thiadiazinan-3-yl)ethyl)thiophene-2-carboxylic acid] displayed an EC50 of 0.09 nM. Still for that read-out and setting: for `O=C(O)c1ccc(CCN2C(=O)SCCN2CCC(O)Cc2cccc(C#Cc3ccsc3Cl)c2)s1` (centres unmarked) [Example 5, 5-(2-(4-(4-(3-((2-Chlorothiophen-3-yl)ethynyl)phenyl)-3-hydroxybutyl)-2-oxo-1,3,4-thiadiazinan-3-yl)ethyl)thiophene-2-carboxylic acid] the value was 0.3 nM; for `O=C(O)c1ccc(CCN2C(=O)SCCN2CCC(O)Cc2cccc(C#Cc3cscn3)c2)s1` (centres unmarked) [Example 9, 5-(2-(4-(3-Hydroxy-4-(3-(thiazol-4-ylethynyl)phenyl)butyl)-2-oxo-1,3,4-thiadiazinan-3-yl)ethyl)thiophene-2-carboxylic acid], 0.09 nM.

`O=C(O)c1ccc(CCN2C(=O)SCCN2CCC(O)Cc2cccc(C#Cc3ccco3)c2)s1` (centres unmarked) [Example 11, 5-(2-(4-(4-(3-(Furan-2-ylethynyl)phenyl)-3-hydroxybutyl)-2-oxo-1,3,4-thiadiazinan-3-yl)ethyl)thiophene-2-carboxylic acid]: in experiment [1], the concentration for a half-maximal effect (EC50) came out at 0.09 nM.

For the molecule `N#Cc1cscc1C#Cc1cccc(CC(O)CCN2CCSC(=O)N2CCc2ccc(C(=O)O)s2)c1` (centres unmarked) [Example 7, 5-(2-(4-(4-(3-((4-Cyanothiophen-3-yl)ethynyl)phenyl)-3-hydroxybutyl)-2-oxo-1,3,4-thiadiazinan-3-yl)ethyl)thiophene-2-carboxylic acid], the concentration giving a half-maximal response (EC50) in experiment [1] worked out at 0.09 nM.

For the molecule `O=C(O)c1cc(Cl)c(CCN2C(=O)SCCN2CCC(O)Cc2cccc(C#Cc3ccccn3)c2)s1` (centres unmarked) [Example 28, 4-Chloro-5-(2-(4-(3-hydroxy-4-(3-(pyridin-2-ylethynyl)phenyl)butyl)-2-oxo-1,3,4-thiadiazinan-3-yl)ethyl)thiophene-2-carboxylic acid], the EC50 in experiment [1] was determined as 0.087 nM. Same read-out and setting: then `O=C(O)c1ccc(CCN2C(=O)SCCN2CCC(O)Cc2cccc(C#Cc3ccccc3)c2)s1` (centres unmarked) [Example 15, 5-(2-(4-(3-Hydroxy-4-(3-(phenylethynyl)phenyl)butyl)-2-oxo-1,3,4-thiadiazinan-3-yl)ethyl)thiophene-2-carboxylic acid], with 0.63 nM; and `O=C(O)c1ccc(CCN2C(=O)OCCN2CCC(O)Cc2cccc(C#Cc3ccsc3)c2)s1` (centres unmarked) [Example 29, 5-(2-(4-(3-Hydroxy-4-(3-(thiophen-3-ylethynyl)phenyl)butyl)-2-oxo-1,3,4-oxadiazinan-3-yl)ethyl)thiophene-2-carboxylic acid], with 0.16 nM; and `COc1ccccc1C#Cc1cccc(CC(O)CCN2CCSC(=O)N2CCc2ccc(C(=O)O)s2)c1` (centres unmarked) [Example 16, 5-(2-(4-(3-Hydroxy-4-(3-((2-methoxyphenyl)ethynyl)phenyl)butyl)-2-oxo-1,3,4-thiadiazinan-3-yl)ethyl)thiophene-2-carboxylic acid], with 0.4 nM. In turn, `N#Cc1ccsc1C#Cc1cccc(CC(O)CCN2CCSC(=O)N2CCc2ccc(C(=O)O)s2)c1` (centres unmarked) [Example 14, 5-(2-(4-(4-(3-((3-Cyanothiophen-2-yl)ethynyl)phenyl)-3-hydroxybutyl)-2-oxo-1,3,4-thiadiazinan-3-yl)ethyl)thiophene-2-carboxylic acid] yielded an EC50 in experiment [1] of 0.3 nM. In the case of `O=C(O)c1cc(Br)c(CCN2C(=O)SCCN2CCC(O)Cc2cccc(C#Cc3ccsc3)c2)s1` (centres unmarked) [Example 2, 4-Bromo-5-(2-(4-(3-hydroxy-4-(3-(thiophen-3-ylethynyl)phenyl)butyl)-2-oxo-1,3,4-thiadiazinan-3-yl)ethyl)thiophene-2-carboxylic acid], a half-maximal response in experiment [1] (EC50) required 0.035 nM. As to `O=C(O)c1ccc(CCN2C(=O)SCCN2CCC(O)Cc2cccc(Br)c2)cc1` (centres unmarked) [Comparative Example 1, 4-(2-(4-(4-(3-Bromophenyl)-3-hydroxybutyl)-2-oxo-1,3,4-thiadiazinan-3-yl)ethyl)benzoic acid, reference compound], a half-maximal response in experiment [1] (EC50) required 2.5 nM. In turn, `N#Cc1cc(C#Cc2cccc(CC(O)CCN3CCSC(=O)N3CCc3ccc(C(=O)O)s3)c2)cs1` (centres unmarked) [Example 12, 5-(2-(4-(4-(3-((5-Cyanothiophen-3-yl)ethynyl)phenyl)-3-hydroxybutyl)-2-oxo-1,3,4-thiadiazinan-3-yl)ethyl)thiophene-2-carboxylic acid] yielded a 50% effective concentration (EC50) in experiment [1] of 0.6 nM. For the molecule `N#Cc1sccc1C#Cc1cccc(CC(O)CCN2CCSC(=O)N2CCc2ccc(C(=O)O)s2)c1` (centres unmarked) [Example 8, 5-(2-(4-(4-(3-((2-Cyanothiophen-3-yl)ethynyl)phenyl)-3-hydroxybutyl)-2-oxo-1,3,4-thiadiazinan-3-yl)ethyl)thiophene-2-carboxylic acid], the “Bone mineral content of femur 1/3 center region (mg) Left femur (administered with compound)” value in experiment [2] is recorded as 98.7 ± 4.1 mg.

As for `Cc1ccc(CC(O)CCN2CCSC(=O)N2CCc2ccc(C(=O)O)s2)cc1C#Cc1ccsc1` (centres unmarked) [Example 18, 5-(2-(4-(3-Hydroxy-4-(4-methyl-3-(thiophen-3-ylethynyl)phenyl)butyl)-2-oxo-1,3,4-thiadiazinan-3-yl)ethyl)thiophene-2-carboxylic acid], the concentration for a half-maximal effect (EC50) in experiment [1] was 0.1 nM.

Turning to `Cc1cscc1C#Cc1cccc(CC(O)CCN2CCSC(=O)N2CCc2ccc(C(=O)O)s2)c1` (centres unmarked) [Example 4, 5-(2-(4-(3-Hydroxy-4-(3-((4-methylthiophen-3-yl)ethynyl)phenyl)butyl)-2-oxo-1,3,4-thiadiazinan-3-yl)ethyl)thiophene-2-carboxylic acid], the response in experiment [1] was half-maximal at 0.34 nM (EC50).

With `O=C(O)c1cc(Cl)c(CCN2C(=O)SCCN2CCC(O)Cc2cccc(C#Cc3ccsc3)c2)s1` (centres unmarked) [Example 17, 4-Chloro-5-(2-(4-(3-hydroxy-4-(3-(thiophen-3-ylethynyl)phenyl)butyl)-2-oxo-1,3,4-thiadiazinan-3-yl)ethyl)thiophene-2-carboxylic acid], the 50% effective concentration (EC50) in experiment [1] turned out to be 0.026 nM.

Broadly, the EC50 is the concentration needed to bring the measured effect to its halfway point.
